Data set [1] deals with Mycobacterium tuberculosis H37Rv. The experiment in a line: Activity test for Mycobacterium tuberculosis (MIC, H37Rv). The format is cell-based. The conditions noted are these: for MIC: Mycobacterium tuberculosis H37Rv, liquid medium, 37° C., read-out: Minimum inhibitory concentration against H37Rv; for anti Mycobacterium tuberculosis activity (MIC against H37Rv), times of that of PA-824: relative to PA-824; for anti Mycobacterium tuberculosis activity (MIC against H37Rv), times of that of ethambutol: relative to ethambutol. The protocol: The tested strain H37Rv was transferred to liquid medium and cultured for 2 weeks at 37° C.; a small amount of the cultured bacterial solution was pipetted and placed in 4 mL of liquid medium; 10-20 sterile glass beads with a diameter of 2-3 mm were added; the mixture was shaken for 20-30 s and left to sediment for 10-20 min; the supernatant of the bacterial suspension was pipetted and adjusted to a turbidity of 1 MCF (equivalent to 1×10^7 CFU/mL) with the liquid medium for use. Each drug was dissolved to 1 mg/mL with an appropriate amount of DMSO and filtered with a 0.22 μm filter. Then, the solution was diluted to a desired experimental concentration with the liquid medium. The final concentrations of the tested drugs were set as follows: 0.001 μg/mL, 0.002 μg/mL, 0.0039 μg/mL, 0.0078 μg/mL, […], 0.03125 μg/mL, 0.0625 μg/mL, 0.125 μg/mL, 0.25 μg/mL, 0.5 μg/mL and 1 μg/mL, a total of 11 concentration gradients. 100 μL of each of the above-mentioned drug solutions was added to a 96-well microwell plate, then 100 μL bacterial solution with a concentration of 1 mg/mL was added to allow the drug concentration to reach the final set concentration, and cultured at 37° C. Three groups in parallel were set for each drug dilution with inoculation amounts of 100%, 10% and 1%, respectively, while no drug was added to the control group.

The next data set can be described thus: physchem. The data set is classed as physicochemical. The conditions noted are these: for Solubility: 3 days, pH 1.2; for solubility at 3 days: pH 1.2, simulated gastric fluid, thermodynamic from solid. The protocol:
3-5 mg of compound to be tested was added to 0.5 mL of aqueous HCl solution (pH=1.2) and the mixture was shaken for three days on a shaker; the sample was centrifuged for 5 min at 10,000 rpm in a centrifuge; a volumetric flask (50 mL) was loaded with 2 mL of supernatant and water was added to a volume at the graduation mark to prepare a sample solution; and 2.6 mg of sample was precisely weighed into a volumetric flask (50 mL), an appropriate amount of methanol was added to dissolve the sample, and water was added to a volume at the graduation mark and shaken well to give a control sample solution. 20 μL of sample solution and control sample solution were each injected, and tested by liquid chromatography. The solubility was calculated as follows:
Solubility (mg/mL)=C (control)*25*A (sample)/A (control)
C (control): concentration of the control sample
A (sample): peak area of the liquid chromatogram of the sample solution
A (control): peak area of the liquid chromatogram of the control sample solution

Data set [2] is described as follows: Drug metabolism test (pharmacokinetics, oral, mice). The data set is classed as in vivo, ICR mice. The conditions noted are these: 10 mg/kg; for AUC(0-inf) / AUC(0-t) / Cmax / MRT / Tmax / half-life: male, ICR, mouse, po, orally (intragastric), plasma. The protocol:
18 healthy male ICR mice with a body weight of 18-22 g were administered drugs by intragastric administration, with an administration dose of 10 mg/kg and an administration volume of 10 mL/kg, respectively. These mice were fasted for 12 h before the test and had free access to drinking water. These mice were fed 2 h after administration uniformly. 0.3 mL of blood was taken from the postocular venous plexus of a mouse at the set time points, placed in a heparinized test tube and centrifuged for 10 min at 3000 rpm; and plasma was separated and frozen in a refrigerator at −20° C. When measured, the sample was treated through the method for treating the plasma sample, and the drug concentration in plasma was determined by LC-MS/MS and the pharmacokinetic parameters of the drug were calculated.

Converted amounts (≈) assume the structure as drawn.

As for `O=[N+]([O-])c1cn2c(n1)OC[C@@H](NCc1cnc(N3CCN(c4ccc(OC(F)(F)F)cc4)CC3)nc1C(F)(F)F)C2` [Compound 41, (S)-2-nitro-N-((2-(4-(4-(trifluoromethoxy)phenyl)piperazin-1-yl)-4-(trifluoromethyl)pyrimidin-5-yl)methyl)-6,7-dihydro-5H-imidazo[2,1-b][1,3]oxazin-6-amine], in data set [1], the MIC was found to be 0.0312 µg/mL (≈ 0.0531 µM).

As for `CC1CN(c2ccc(OC(F)(F)F)cc2)CCN1c1ncc(CN[C@@H]2COc3nc([N+](=O)[O-])cn3C2)cn1` (stereo partly drawn) [Compound 20, (3S)—N-((6-(2-methyl-4-(4-(trifluoromethoxy)phenyl)piperazin-1-yl)pyrimidin-3-yl)methyl)-7-nitro-3,4-dihydro-2H-imidazo[2,1-b][1,3]oxazin-3-amine], in data set [1], the “anti Mycobacterium tuberculosis activity (MIC against H37Rv), times of that of PA-824” value is given as 32 times; the “anti Mycobacterium tuberculosis activity (MIC against H37Rv), times of that of ethambutol” value amounted to 256 times; the MIC stood at 0.00195 µg/mL (≈ 0.00365 µM). In “physchem”, this compound returned a Solubility of 1023.8 µg/mL (≈ 1920 µM) and a solubility at 3 days of over 1000 µg/mL. In data set [2], the area under the curve AUC(0-inf) was determined as 21600 ng·h/mL, the AUC(0-t) worked out at 21500 ng·h/mL, the peak level (Cmax) was 2100 ng/mL and the mean residence time (MRT) was determined as 4.82 h. Further, in data set [2], the time to peak (Tmax) was 2.33 h and the half-life was 2.98 h. Besides, the “pharmacokinetic properties (in words)” value in data set [2] (orally, judgement on Table 6) is reported as “excellent”.

With `N#Cc1nc(N2CCN(c3ccc(OC(F)(F)F)cc3)CC2)ncc1CN[C@@H]1COc2nc([N+](=O)[O-])cn2C1` [Compound 40, (S)-5-(((2-nitro-6,7-dihydro-5H-imidazo[2,1-b][1,3]oxazin-6-yl)amino)methyl)-2-(4-(4-(trifluoromethoxy)phenyl)piperazin-1-yl)pyrimidine-4-carbonitrile], in data set [1], the “anti Mycobacterium tuberculosis activity (MIC against H37Rv), times of that of PA-824” value was 8 times; the “anti Mycobacterium tuberculosis activity (MIC against H37Rv), times of that of ethambutol” value came out at 64 times; the MIC amounted to 0.0078 µg/mL (≈ 0.0143 µM).

With `O=[N+]([O-])c1cn2c(n1)OC[C@@H](NCc1ccc(N3CCN(c4ccc(OC(F)(F)F)cc4)CC3)nc1)C2` [Compound 4, (S)-2-nitro-N-((6-(4-(4-(trifluoromethoxy)phenyl)piperazin-1-yl)pyrid-3-yl)methyl)-6,7-dihydro-5H-imidazo[2,1-b][1,3]oxazin-6-amine], in data set [1], the “anti Mycobacterium tuberculosis activity (MIC against H37Rv), times of that of PA-824” value stood at 32 times; the “anti Mycobacterium tuberculosis activity (MIC against H37Rv), times of that of ethambutol” value was found to be 256 times; the MIC was 0.00195 µg/mL (≈ 0.00375 µM). In “physchem”, this compound showed a Solubility of 1257.2 µg/mL (≈ 2420 µM) and a solubility at 3 days of over 1000 µg/mL. In data set [2], the AUC(0-inf) was 17300 ng·h/mL, the exposure AUC(0-t) was determined as 17200 ng·h/mL, the highest concentration (Cmax) was 1780 ng/mL and the MRT amounted to 5.56 h. Moreover, in data set [2], the time of peak concentration (Tmax) amounted to 2 h and the half-life is 3.38 h.

Turning to `O=[N+]([O-])c1cn2c(n1)OC[C@@H](NCc1ccc(N3CC4CN(c5ccc(OC(F)(F)F)cc5)CC4C3)nc1)C2` (stereo partly drawn) [Compound 11, (6S)-2-nitro-N-((6-(5-(4-(trifluoromethoxy)phenyl)hexahydropyrrolo[3,4-c]pyrrol-2(1H)-yl)pyrid-3-yl)methyl)-6,7-dihydro-5H-imidazo[2,1-b][1,3]oxazin-6-amine], the MIC in data set [1] came out at 0.0312 µg/mL (≈ 0.0573 µM).

Regarding `CC1CN(c2ccc(OC(F)(F)F)cc2)CCN1c1ccc(CN[C@@H]2COc3nc([N+](=O)[O-])cn3C2)cn1` (stereo partly drawn) [Compound 6, (3S)—N-((6-(2-methyl-4-(4-(trifluoromethoxy)phenyl)piperazin-1-yl)pyrid-3-yl)methyl)-7-nitro-3,4-dihydro-2H-imidazo[2,1-b][1,3]oxazin-3-amine], in data set [1], the “anti Mycobacterium tuberculosis activity (MIC against H37Rv), times of that of PA-824” value is given as 32 times; the “anti Mycobacterium tuberculosis activity (MIC against H37Rv), times of that of ethambutol” value was determined as 256 times; the MIC amounted to 0.00195 µg/mL (≈ 0.00366 µM).

In the case of `O=[N+]([O-])c1cn2c(n1)OC[C@@H](NCc1ccc(N3CCC(Oc4ccc(OC(F)(F)F)cc4)C(F)C3)nc1)C2` (stereo partly drawn) [Compound 3, (6S)—N-((6-(3-fluoro-4-(4-(trifluoromethoxy)phenoxy)piperidin-1-yl)pyrid-3-yl)methyl)-2-nitro-6,7-dihydro-5H-imidazo[2,1-b][1,3]oxazin-6-amine], in data set [1], the MIC amounted to 0.0156 µg/mL (≈ 0.0282 µM).

As to `CC[C@@H](CO)NCCN[C@@H](CC)CO` [Ethambutol, reference compound], the MIC in data set [1] came to 0.5 µg/mL (≈ 2.45 µM).

With `CN(Cc1cnc(N2CCN(c3ccc(OC(F)(F)F)cc3)CC2)nc1)[C@@H]1COc2nc([N+](=O)[O-])cn2C1` [Compound 44, (S)—N-methyl-2-nitro-N-((2-(4-(4-(trifluoromethoxy)phenyl)piperazin-1-yl)pyrimidin-5-yl)methyl)-6,7-dihydro-5H-imidazo[2,1-b][1,3]oxazin-6-amine], in data set [1], the “anti Mycobacterium tuberculosis activity (MIC against H37Rv), times of that of PA-824” value is on record as 32 times; the “anti Mycobacterium tuberculosis activity (MIC against H37Rv), times of that of ethambutol” value is on record as 256 times; the MIC came out at 0.00195 µg/mL (≈ 0.00365 µM).

Regarding `O=[N+]([O-])c1cn2c(n1)OC[C@@H](NCc1cnc(N3C4CCC3CC(Oc3ccc(OC(F)(F)F)cc3)C4)nc1)C2` (some centres unmarked) [Compound 28], the MIC in data set [1] came out at 0.0156 µg/mL (≈ 0.0278 µM).

For the compound `O=[N+]([O-])c1cn2c(n1)OC[C@@H](NCc1ccc(N3C4CCC3CC(Oc3ccc(OC(F)(F)F)cc3)C4)nc1)C2` (stereo partly drawn) [Compound 14, (6S)-2-nitro-N-((6-(3-(4-(trifluoromethoxy)phenoxy)-8-azabicyclo[3.2.1]octan-8-yl)pyrid-3-yl)methyl)-6,7-dihydro-5H-imidazo[2,1-b][1,3]oxazin-6-amine], in data set [1], the “anti Mycobacterium tuberculosis activity (MIC against H37Rv), times of that of PA-824” value is 8 times; the “anti Mycobacterium tuberculosis activity (MIC against H37Rv), times of that of ethambutol” value stood at 64 times; the MIC worked out at 0.0078 µg/mL (≈ 0.0139 µM).

`COc1nc(N2CCN(c3ccc(OC(F)(F)F)cc3)CC2)ncc1CN[C@@H]1COc2nc([N+](=O)[O-])cn2C1` [Compound 38, (S)—N-((4-methoxy-2-(4-(4-(trifluoromethoxy)phenyl)piperazin-1-yl)pyrimidin-5-yl)methyl)-2-nitro-6,7-dihydro-5H-imidazo[2,1-b][1,3]oxazin-6-amine]: the MIC in data set [1] worked out at 0.0156 µg/mL (≈ 0.0283 µM).

For `O=[N+]([O-])c1cn2c(n1)OC[C@@H](NCc1ccc(N3CCC4(CC3)CN(c3ccc(OC(F)(F)F)cc3)C4)nc1)C2` [Compound 13, (S)-2-nitro-N-((6-(2-(4-(trifluoromethoxy)phenyl)-2,7-diazaspiro[3.5]nonan-7-yl)pyrid-3-yl)methyl)-6,7-dihydro-5H-imidazo[2,1-b][1,3]oxazin-6-amine], the MIC in data set [1] came out at 0.0156 µg/mL (≈ 0.0279 µM).

Regarding `CC1CN(c2ccc(CN[C@@H]3COc4nc([N+](=O)[O-])cn4C3)cn2)CCN1c1ccc(OC(F)(F)F)cc1` (stereo partly drawn) [Compound 5, (3S)—N-((6-(3-methyl-4-(4-(trifluoromethoxy)phenyl)piperazin-1-yl)pyrid-3-yl)methyl)-7-nitro-3,4-dihydro-2H-imidazo[2,1-b][1,3]oxazin-3-amine], in data set [1], the “anti Mycobacterium tuberculosis activity (MIC against H37Rv), times of that of PA-824” value was determined as 16 times; the “anti Mycobacterium tuberculosis activity (MIC against H37Rv), times of that of ethambutol” value is reported as 128 times; the MIC was found to be 0.0039 µg/mL (≈ 0.00731 µM).

Regarding `O=[N+]([O-])c1cn2c(n1)OC[C@@H](NCc1cnc(N3CC4CN(c5ccc(OC(F)(F)F)cc5)CC4C3)nc1)C2` (some centres unmarked) [Compound 25], in data set [1], the MIC is 0.0156 µg/mL (≈ 0.0285 µM).

In the case of `O=[N+]([O-])c1cn2c(n1)OC[C@@H](NCc1cnc(N3CCC(Oc4ccc(OC(F)(F)F)cc4)CC3)nc1)C2` [Compound 15], the MIC in data set [1] is 0.0312 µg/mL (≈ 0.0584 µM).
